Laboratory results published in patent US5906918A, “Compositions and methods for measurement of oxidative DNA damage” (Health Research Inc., priority 1997, dated 1999).

How the values were obtained:
nuclease P1 [1] = biological target: T1, nuclease P1 (Penicillium citrinum, UniProt P24289); assay: Endonuclease (nuclease P1) turnover rate for hydrolysis of modified dinucleoside monophosphates; type: biochemical; conditions: 6 nmol substrate in 100 μl 60 mM sodium acetate buffer pH 5.3 with zinc chloride, 50 ng nuclease P1, 37° C., HPLC analysis
T1 sequence (P24289 1-270): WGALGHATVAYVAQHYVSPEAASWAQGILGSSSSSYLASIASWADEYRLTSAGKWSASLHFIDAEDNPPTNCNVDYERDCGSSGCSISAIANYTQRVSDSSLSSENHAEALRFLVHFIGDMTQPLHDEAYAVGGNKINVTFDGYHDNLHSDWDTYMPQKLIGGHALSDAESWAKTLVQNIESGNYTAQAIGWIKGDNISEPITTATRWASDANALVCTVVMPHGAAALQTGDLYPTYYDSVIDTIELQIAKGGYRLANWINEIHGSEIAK
Description: The endonuclease turnover rate was measured in terms of the number of substrate molecules hydrolyzed per minute per molecule of enzyme. The substrates were modified dinucleoside monophosphates comprising the DNA base modifications illustrated in FIG. 1. The respective unmodified dinucleoside monophosphates were purchased commercially, with the exceptions of d(GpG), d(GpC), d(GpA), and d(GpT) which were prepared using methods previously described (Paul et al., 1988, Int. J. Radiat. Biol. 54:403-415). A solution of each the unmodified dinucleoside monophosphates was X-irradiated, and the corresponding modified dinucleoside monophosphate was isolated by reverse-phase HPLC (see, e.g., Schroder et al., 1995, Int. J. Radiat. Biol. 68:509-23; and Box et al., 1995, In Radiation Damage in DNA, eds. Fuciarelli and Zimbrick, publs. Battelle Press). The one exception to producing modified dinucleoside monophosphates was the production of the DNA base modification thymine glycol. Modified dinucleoside monophosphates bearing the thymine glycol modification were prepared by treating dTpA with osmium tetroxide (see, e.g., Belfi et al., 1986, supra). The DNA base modifications were identified using proton nuclear magnetic resonance spectroscopy (see, e.g., Schroder et al., 1995, Int. J. Radiat. Biol. 68:509-23).
Concentrations of the modified dinucleoside monophosphates were determined spectrophotometrically at 260 nm. The rates of hydrolysis for the modified dinucleoside monophosphates by endonuclease were obtained from measurements of equimolar amounts of the substrate modified dinucleoside monophosphate (6 nmol) in 100 μl of 60 mM sodium acetate buffer (pH 5.3, containing […] zinc chloride). Hydrolysis was initiated by the addition of the endonuclease (50 ng of nuclease P1 in 2 μl buffer) and the reactants were incubated in a 37° C. water bath. At varying times, hydrolysis was terminated by the addition of 15 μl of 1M Tris, and rapid freezing in a liquid nitrogen bath. The products of digestion were analyzed by injecting the digest onto a C-18 reverse phase HPLC column, with elution using a 5%-53% linear gradient of CH3 CN/0.1M ammonium acetate buffer, pH 7.0 at a 1.0 ml/minute flow rate. Moles of protein were calculated from the weight of the material and the known molecular weights for the constituents. The results of the measurement of the endonuclease turnover rates (R, as measured in terms of molecules hydrolyzed per minute per molecule of enzyme) for each of the modified dinucleoside monophosphates tested is illustrated in Table 1.

nuclease P1 [2] = biological target: T1, nuclease P1; conditions: endonucleases such as nuclease P1; Maccubbin et al., 1993; cited from earlier work

Row | endonuclease turnover rate R (nuclease P1 [1]) | SMILES | hydrolysis by endonuclease of the phosphoester bond 3' to the modified nucleoside (nuclease P1 [2])
1 | no hydrolysis detected | Nc1ccn([C@H]2C[C@H](O)[C@@H](COP(=O)(O)O[C@H]3C[C@H](NC=O)O[C@@H]3CO)O2)c(=O)n1 [d(T*pC) formamido remnant] | –
2 | no hydrolysis detected | Nc1ncnc2c1ncn2[C@H]1C[C@H](O)[C@@H](COP(=O)(O)O[C@H]2C[C@H](NC=O)O[C@@H]2CO)O1 [d(T*pA) formamido remnant] | do not hydrolyze
3 | no hydrolysis detected | Cc1cn([C@H]2C[C@H](O)[C@@H](COP(=O)(O)O[C@H]3C[C@H](NC=O)O[C@@H]3CO)O2)c(=O)[nH]c1=O [d(T*pT) formamido remnant] | –
4 | no hydrolysis detected | Nc1nc2c(ncn2[C@H]2C[C@H](O)[C@@H](COP(=O)(O)O[C@H]3C[C@H](NC=O)O[C@@H]3CO)O2)c(=O)[nH]1 [d(T*pG) formamido remnant] | –
